Source: patent US20060009478A1, “Methods for the treatment of back pain” (priority 2003, published 2006)
Like-named read-outs stand apart in the source and are kept apart here.

Test system: patients with moderate to severe chronic pain due to osteoarthritis of the hip or knee
[1] = 3-week study, intent to treat population
[2] = Week 1, Days 1-3: 10 mg OXY/d, Days 4-8: 20 mg OXY/d

What does the source list for `COc1ccc2c3c1O[C@H]1C(=O)CC[C@@]4(O)[C@@H](C2)N(C)CC[C@]314` [OXY QID, oxycodone]?
Discontinuation of treatment because of adverse event: Any adverse event, % of patients [1]: 28.4%; Discontinuation of treatment because of adverse event: Any adverse event, number of patients [1]: 29; Discontinuation of treatment because of adverse event: Constipation, % of patients [1]: 1.0%; Discontinuation of treatment because of adverse event: Constipation, number of patients [1]: 1; Discontinuation of treatment because of adverse event: Diarrhea, % of patients [1]: 0.0%; Discontinuation of treatment because of adverse event: Diarrhea, number of patients [1]: 0; Discontinuation of treatment because of adverse event: Dizziness, % of patients [1]: 1.0%; Discontinuation of treatment because of adverse event: Dizziness, number of patients [1]: 1; Discontinuation of treatment because of adverse event: Euphoric mood, % of patients [1]: 0.0%; Discontinuation of treatment because of adverse event: Euphoric mood, number of patients [1]: 0; Discontinuation of treatment because of adverse event: Eye disorders, % of patients [1]: 0.0%; Discontinuation of treatment because of adverse event: Eye disorders, number of patients [1]: 0; Discontinuation of treatment because of adverse event: Gastrointestinal disorders, % of patients [1]: 12.7%; Discontinuation of treatment because of adverse event: Gastrointestinal disorders, number of patients [1]: 13; Discontinuation of treatment because of adverse event: General disorders and administration site conditions, % of patients [1]: 2.0%; Discontinuation of treatment because of adverse event: General disorders and administration site conditions, number of patients [1]: 2; Discontinuation of treatment because of adverse event: Headache, % of patients [1]: 2.0%; Discontinuation of treatment because of adverse event: Headache, number of patients [1]: 2; Discontinuation of treatment because of adverse event: Lethargy, % of patients [1]: 0.0%; Discontinuation of treatment because of adverse event: Lethargy, number of patients [1]: 0; Discontinuation of treatment because of adverse event: Nausea, % of patients [1]: 6.9%; Discontinuation of treatment because of adverse event: Nausea, number of patients [1]: 7; Discontinuation of treatment because of adverse event: Nervous system disorders, % of patients [1]: 7.8%; Discontinuation of treatment because of adverse event: Nervous system disorders, number of patients [1]: 8; Discontinuation of treatment because of adverse event: Pruritus, % of patients [1]: 1.0%; Discontinuation of treatment because of adverse event: Pruritus, number of patients [1]: 1; Discontinuation of treatment because of adverse event: Psychiatric disorders, % of patients [1]: 1.0%; Discontinuation of treatment because of adverse event: Psychiatric disorders, number of patients [1]: 1; Discontinuation of treatment because of adverse event: Sedation, % of patients [1]: 2.0%; Discontinuation of treatment because of adverse event: Sedation, number of patients [1]: 2; Discontinuation of treatment because of adverse event: Skin and subcutaneous tissue disorders, % of patients [1]: 2.9%; Discontinuation of treatment because of adverse event: Skin and subcutaneous tissue disorders, number of patients [1]: 3; Discontinuation of treatment because of adverse event: Sommolence, % of patients [1]: 2.0%; Discontinuation of treatment because of adverse event: Sommolence, number of patients [1]: 2; Discontinuation of treatment because of adverse event: Upper abdominal pain, % of patients [1]: 0.0%; Discontinuation of treatment because of adverse event: Upper abdominal pain, number of patients [1]: 0; Discontinuation of treatment because of adverse event: Vomiting, % of patients [1]: 3.9%; Discontinuation of treatment because of adverse event: Vomiting, number of patients [1]: 4; Adverse event Constipation, % of patients [2]: 12.7%; Adverse event Constipation, number of patients [2]: 13; Adverse event Dizziness, % of patients [2]: 16.7%; Adverse event Dizziness, number of patients [2]: 17; Adverse event Dry Mouth, % of patients [2]: 5.9%; Adverse event Dry Mouth, number of patients [2]: 6; Adverse event Fatigue, % of patients [2]: 2.9%; Adverse event Fatigue, number of patients [2]: 3; Adverse event Headache, % of patients [2]: 16.7%; Adverse event Headache, number of patients [2]: 17; Adverse event Nausea, % of patients [2]: 23.5%; Adverse event Nausea, number of patients [2]: 24; Adverse event Pruritus, % of patients [2]: 7.8%; Adverse event Pruritus, number of patients [2]: 8; Adverse event Sommolence, % of patients [2]: 15.7%; Adverse event Sommolence, number of patients [2]: 16; Adverse event Vomiting, % of patients [2]: 3.9%; Adverse event Vomiting, number of patients [2]: 4; Adverse event Constipation, % of patients (Week 2, 30 mg OXY/d): 7.1%; Adverse event Constipation, number of patients (Week 2, 30 mg OXY/d): 6; Adverse event Dizziness, % of patients (Week 2, 30 mg OXY/d): 11.8%; Adverse event Dizziness, number of patients (Week 2, 30 mg OXY/d): 10; Adverse event Dry Mouth, % of patients (Week 2, 30 mg OXY/d): 4.7%; Adverse event Dry Mouth, number of patients (Week 2, 30 mg OXY/d): 4; Adverse event Fatigue, % of patients (Week 2, 30 mg OXY/d): 0.0%; Adverse event Fatigue, number of patients (Week 2, 30 mg OXY/d): 0; Adverse event Headache, % of patients (Week 2, 30 mg OXY/d): 3.5%; Adverse event Headache, number of patients (Week 2, 30 mg OXY/d): 3; Adverse event Nausea, % of patients (Week 2, 30 mg OXY/d): 14.1%; Adverse event Nausea, number of patients (Week 2, 30 mg OXY/d): 12; Adverse event Pruritus, % of patients (Week 2, 30 mg OXY/d): 5.9%; Adverse event Pruritus, number of patients (Week 2, 30 mg OXY/d): 5; Adverse event Sommolence, % of patients (Week 2, 30 mg OXY/d): 7.1%; Adverse event Sommolence, number of patients (Week 2, 30 mg OXY/d): 6; Adverse event Vomiting, % of patients (Week 2, 30 mg OXY/d): 3.5%; Adverse event Vomiting, number of patients (Week 2, 30 mg OXY/d): 3; Adverse event Constipation, % of patients (Week 3, 40 mg OXY/d): 2.7%; Adverse event Constipation, number of patients (Week 3, 40 mg OXY/d): 2; Adverse event Dizziness, % of patients (Week 3, 40 mg OXY/d): 5.3%; Adverse event Dizziness, number of patients (Week 3, 40 mg OXY/d): 4; Adverse event Dry Mouth, % of patients (Week 3, 40 mg OXY/d): 0.0%; Adverse event Dry Mouth, number of patients (Week 3, 40 mg OXY/d): 0; Adverse event Headache, % of patients (Week 3, 40 mg OXY/d): 8.0%; Adverse event Headache, number of patients (Week 3, 40 mg OXY/d): 6; Adverse event Nausea, number of patients (Week 3, 40 mg OXY/d): 8; Adverse event Pruritus, % of patients (Week 3, 40 mg OXY/d): 4.0%; Adverse event Pruritus, number of patients (Week 3, 40 mg OXY/d): 3; Adverse event Sommolence, % of patients (Week 3, 40 mg OXY/d): 2.7%; Adverse event Sommolence, number of patients (Week 3, 40 mg OXY/d): 2; Adverse event Vomiting, % of patients (Week 3, 40 mg OXY/d): 12.0%; Adverse event Vomiting, number of patients (Week 3, 40 mg OXY/d): 9; Patients who discontinued treatment because of adverse events (number) (of the 360 patients who received study drug, 3-week treatment): 29
